The target of the assay is T1, 5α-reductase (Homo sapiens, UniProt P18405).
T1 construct: host or cells: Hs68 human genital skin fibroblasts
T1 sequence (P18405 1-259): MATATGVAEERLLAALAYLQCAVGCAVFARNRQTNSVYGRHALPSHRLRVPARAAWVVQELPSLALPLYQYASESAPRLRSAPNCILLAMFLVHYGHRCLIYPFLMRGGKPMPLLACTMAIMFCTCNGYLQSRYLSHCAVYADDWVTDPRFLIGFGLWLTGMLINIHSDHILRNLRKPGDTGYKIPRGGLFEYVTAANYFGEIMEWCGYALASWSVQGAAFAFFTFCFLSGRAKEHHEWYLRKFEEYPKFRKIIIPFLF
The assay can be described thus: 5α-Reductase activity in Hs68 human genital skin fibroblasts (conversion of labeled testosterone, TLC analysis). Type of assay: cell-based. The settings on record: Hs68, test compound 0.316 µM, Hs68 cells, substrate testosterone 12 µM, incubated four hours. Here is the method: Cell Culture: 5α-Reductase activity was measured using Hs68 human genital skin fibroblasts which were originally purchased from the American Type Culture Collection (Rockville, MD). The cells were grown in Dulbecco's Modified Eagle's Medium (DMEM) plus 10% stripped fetal bovine serum which was supplemented with amphotericin B ([…]) and gentamicin ([…]) (GIBCO, Grand Island, NY). The serum was stripped of endogenous steroids by incubation with dextran-coated charcoal prior to its addition to the media. The cells were maintained at 37°C in an atmosphere of 95% air, 5% CO2 and were passaged every 7-10 days by exposure to a trypsin-EDTA solution (0.025% trypsin, 0.265 mM EDTA). Prior to the assay the Hs68 cells were harvested and plated in Falcon 6-well plates (Becton Dickinson Labware, Lincoln Park, NJ) at a density of 6 x 10^4 cells per well. The cells were allowed to grow for 4-5 days or until they reached approximately 80% confluence.
Assay Method I: The substrate was prepared by dissolving unlabeled testosterone (Sigma Chemical Co., St. Louis, MO) in absolute ethanol followed by the addition of [7-^3H (N)]-testosterone (23.3 Ci/mmole, New England Nuclear, Boston, MA). The steroid solution was taken to dryness under a stream of nitrogen and then reconstituted in media.
Assay Method II: The substrate used for this method was [^14C]-testosterone (50 mCi/mmol) (New England Nuclear, Boston, MA). An aliquot of the substrate was taken to dryness under a stream of nitrogen. After the addition of 30 µl of ethanol, the testosterone was dissolved in an appropriate volume of media.
Sample Preparation: The test compounds were brought up in absolute ethanol in order to achieve the desired concentration. Subsequent dilutions of the test compounds with media were performed by the Biomek 1000 Automated Laboratory Workstation (Beckman Instruments, Palo Alto, CA). The existing media in the sample wells was aspirated and replaced with fresh media. Test compound was then added to the wells followed by the addition of 0.5 ml of substrate. The volume of the incubation mixture was maintained at 2.0 ml. The final substrate concentration was 12 µM. The concentration of the test compounds ranged from 0.001-150 µM. An additional three wells (background) containing media and substrate but no cells were also included to account for the non-enzymatic metabolism of the substrate. The plates were returned to the incubator and incubated for four hours.
At the end of the incubation the media was collected and transferred to an extraction tube containing 5 ml of toluene-ethanol (9:1), to which has been added 20-250 µg each of unlabeled carrier steroids (estriol, estradiol, estrone, 5α-androstan-3α,17β-diol, 5α-androstan-3β,17β-diol, 4-androstene-3,17-dione, 5α-androstan-3,17-dione, testosterone, and 5α-dihydrotestosterone) (Steraloids, Inc., Wilton, NH). In the case of Assay Method I the extraction tube also contained 1,000 and 10,000 dpm of [4-^14C]-dihydrotestosterone (50-60 mCi/mmol) and [4-^14C]-testosterone (50 mCi/mmol) (New England Nuclear, Boston, MA), respectively. The [^14C]-steroids were included as recovery standards to quantify procedural losses. A small amount of NaCl was also added to the extraction tubes to prevent foaming. The samples were vortexed for approximately 30 seconds and then centrifuged for 10 minutes at 500 x g. The organic phase was collected and the samples taken to dryness, redissolved in dichloromethane-methanol (9:1) and were analyzed by thin layer chromatography using one of the methods described below.
Chromatography Method I (two-dimensional): The extracted samples were appled to silica gel 60F254, 0.25 mm thick, thin layer chromatography plates (EM Science, Cincinnati, OH). The plates were developed in the first dimension with a solvent system containing dichloromethane-ethyl acetate-methanol-acetic acid (160:38:1.5:0.5, Mallinckrodt Inc., Paris, KY).

Read-outs that look alike come from different tables or passages of the source.

As for `CN1C(=O)CC[C@@H]2c3ccc(Cl)cc3CC[C@H]21` [Example 64, (-)-(4aR)-(10bR)-8-chloro-4-methyl-1,2,3,4,4a,5,6, lOb-octahydrobenzo[f]quinolin-3-one], the inhibition (in general, the change of the read-out against control, counted positive when it falls) at 0.316 µM came to 91.5%.

For `CN1C(=O)CC[C@H]2c3ccc(Cl)cc3CC[C@@H]21` [Example 65, (+)-(4aS)-(10bS)-8-chloro-4-(methyl)-1,2,3,4,4a,5,6,10b-octahydrobenzo[f]quinolin-3-one], the inhibition at 0.316 µM (read-out: % Inhibition) came out at 95.6%.

The values are drawn from EP0591583B1, “Benzo (f) quinolinones as 5-alpha-reductase inhibitors” (ELI LILLY AND COMPANY, priority 1992, dated 1994).
